Tests used:
Type in all cases: functional
A549 = test: Cytotoxicity against human A549 cells assessed as cellular growth at 100 uM after 48 hrs by SRB assay relative to control
SK-MEL-28 = test: Cytotoxicity against human SK-MEL-28 cells assessed as cellular growth at 100 uM after 48 hrs by SRB assay relative to control
CCRF-CEM = test: Cytotoxicity against human CCRF-CEM cells assessed as cellular growth at 1 uM after 48 hrs by SRB assay relative to control
Hs-578T [1] = test: Cytotoxicity against human Hs578T cells assessed as cellular growth at 0.1 uM after 48 hrs by SRB assay relative to control
Malme-3M = test: Cytotoxicity against human MALME-3M cells assessed as cellular growth at 100 uM after 48 hrs by SRB assay relative to control
MDA-MB-468 [2] = test: Cytotoxicity against human MDA-MB-468 cells assessed as cellular growth at 1 uM after 48 hrs by SRB assay relative to control
SF-295 = test: Cytotoxicity against human SF295 cells assessed as cellular growth at 100 uM after 48 hrs by SRB assay relative to control
786-0 = test: Cytotoxicity against human 786-0 cells assessed as cellular growth at 100 uM after 48 hrs by SRB assay relative to control
SF-268 [3] = test: Cytotoxicity against human SF268 cells assessed as cellular growth at 0.01 uM after 48 hrs by SRB assay relative to control
BT-549 [4] = test: Cytotoxicity against human BT549 cells after 48 hrs by SRB assay; settings: BT-549, 48 h
SNB-19 = test: Cytotoxicity against human SNB19 cells assessed as cellular growth at 1 uM after 48 hrs by SRB assay relative to control
SF-268 [5] = test: Cytotoxicity against human SF268 cells assessed as cellular growth at 0.1 uM after 48 hrs by SRB assay relative to control
K562 = test: Cytotoxicity against human K562 cells assessed as cellular growth at 0.01 uM after 48 hrs by SRB assay relative to control
NCI-H23 = test: Cytotoxicity against human NCI-H23 cells after 48 hrs by SRB assay; settings: NCI-H23, 48 h
COLO 205 [6] = test: Cytotoxicity against human COLO205 cells assessed as cellular growth at 100 uM after 48 hrs by SRB assay relative to control
MDA-MB-435 = test: Cytotoxicity against human MDA-MB-435 cells assessed as cellular growth at 100 uM after 48 hrs by SRB assay relative to control
RXF 393 = test: Cytotoxicity against human RXF393 cells assessed as cellular growth at 0.01 uM after 48 hrs by SRB assay relative to control
LOX IMVI = test: Cytotoxicity against human LOXIMVI cells assessed as cellular growth at 0.01 uM after 48 hrs by SRB assay relative to control
HCT-116 = test: Cytotoxicity against human HCT116 cells assessed as cellular growth at 10 uM after 48 hrs by SRB assay relative to control
SN12C = test: Cytotoxicity against human SN12C cells assessed as cellular growth at 0.1 uM after 48 hrs by SRB assay relative to control
[7] = Cytotoxicity against human NCI-ADR-RES cells after 48 hrs by SRB assay
NCI-H522 = test: Cytotoxicity against human NCI-H522 cells assessed as cellular growth at 0.1 uM after 48 hrs by SRB assay relative to control
ACHN [8] = test: Cytotoxicity against human ACHN cells assessed as cellular growth at 0.1 uM after 48 hrs by SRB assay relative to control
MCF7 = test: Cytotoxicity against human MCF7 cells assessed as cellular growth at 100 uM after 48 hrs by SRB assay relative to control
ACHN [9] = test: Cytotoxicity against human ACHN cells after 48 hrs by SRB assay
HOP-62 = test: Cytotoxicity against human HOP62 cells after 48 hrs by SRB assay; settings: HOP-62, 48 h
U-251 = test: Cytotoxicity against human U251 cells assessed as cellular growth at 100 uM after 48 hrs by SRB assay relative to control
MDA-MB-468 [10] = test: Cytotoxicity against human MDA-MB-468 cells assessed as cellular growth at 0.01 uM after 48 hrs by SRB assay relative to control
OVCAR-4 = test: Cytotoxicity against human OVCAR4 cells assessed as cellular growth at 1 uM after 48 hrs by SRB assay relative to control
Hs-578T [11] = test: Cytotoxicity against human Hs578T cells after 48 hrs by SRB assay
DU-145 = test: Cytotoxicity against human DU145 cells after 48 hrs by SRB assay; settings: DU-145, 48 h
[12] = Cytotoxicity against human NCI-ADR-RES cells assessed as cellular growth at 1 uM after 48 hrs by SRB assay relative to control
SK-OV-3 = test: Cytotoxicity against human SKOV3 cells assessed as cellular growth at 100 uM after 48 hrs by SRB assay relative to control
COLO 205 [13] = test: Cytotoxicity against human COLO205 cells assessed as cellular growth at 0.01 uM after 48 hrs by SRB assay relative to control
HCT-15 = test: Cytotoxicity against human HCT15 cells after 48 hrs by SRB assay; settings: HCT-15, 48 h
BT-549 [14] = test: Cytotoxicity against human BT549 cells assessed as cellular growth at 0.01 uM after 48 hrs by SRB assay relative to control
[15] = read-out: LC50 (the source's name)
[16] = read-out: pLC50 (the source's name) (converted)

Q: For `O=C(CCCn1c2c(sc3ccccc32)c(=O)n2nnc(-c3ccccc3)c12)NCCc1c[nH]cn1`, which Activity (A549) is on record?
A: Its Activity is -2%.

Q: What about the Activity (SK-MEL-28) of the same compound?
A: Its Activity is -100%.

Q: What about the Activity (CCRF-CEM) of the same compound?
A: Its Activity is -28%.

Q: And the Activity (Hs-578T [1])?
A: The Activity was 91%.

Q: And the Activity (Malme-3M)?
A: The Activity was -72%.

Q: And the Activity (MDA-MB-468 [2])?
A: Its Activity is 8%.

Q: And the Activity (SF-295)?
A: Its Activity is -65%.

Q: What about the Activity (786-0) of the same compound?
A: Its Activity is -68%.

Q: What about the Activity (SF-268 [3]) of the same compound?
A: Its Activity is 105%.

Q: And the GI50 (BT-549 [4]; read-out: GI50)?
A: The GI50 was 3.32 µM.

Q: And the LC50 (concentration killing 50% of cells) (BT-549 [4]; read-out: LC50)?
A: Its LC50 (concentration killing 50% of cells) is 51.5 µM.

Q: And the TGI (BT-549 [4]; read-out: TGI)?
A: Its TGI is 11.4 µM.

Q: What about the GI50 (BT-549 [4]; read-out: pGI50 (converted)) of the same compound?
A: The GI50 was 3.31 µM.

Q: And the LC50 (concentration killing 50% of cells) (BT-549 [4]; read-out: pLC50 (converted))?
A: The LC50 (concentration killing 50% of cells) was 51.3 µM.

Q: What about the TGI (BT-549 [4]; read-out: pTGI (converted)) of the same compound?
A: The TGI was 11.5 µM.

Q: And the Activity (SNB-19)?
A: Its Activity is 65%.

Q: What about the Activity (SF-268 [5]) of the same compound?
A: Its Activity is 93%.

Q: What about the Activity (K562) of the same compound?
A: The Activity was 65%.

Q: And the GI50 (NCI-H23; read-out: GI50)?
A: Its GI50 is 1.34 µM.

Q: What about the TGI (NCI-H23; read-out: TGI) of the same compound?
A: Its TGI is 3.52 µM.

Q: And the GI50 (NCI-H23; read-out: pGI50 (converted))?
A: The GI50 was 1.35 µM.

Q: What about the TGI (NCI-H23; read-out: pTGI (converted)) of the same compound?
A: The TGI was 3.55 µM.

Q: What about the Activity (COLO 205 [6]) of the same compound?
A: Its Activity is -100%.

Q: What about the Activity (MDA-MB-435) of the same compound?
A: Its Activity is -76%.

Q: What about the Activity (RXF 393) of the same compound?
A: Its Activity is 118%.

Q: And the Activity (LOX IMVI)?
A: The Activity was 103%.

Q: What about the Activity (HCT-116) of the same compound?
A: Its Activity is -100%.

Q: And the Activity (SN12C)?
A: The Activity was 40%.

Q: And the GI50 ([7]; read-out: GI50)?
A: Its GI50 is 1.07 µM.

Q: What about the CC50 [7, 15] of the same compound?
A: The CC50 was > 100 µM.

Q: What about the TGI ([7]; read-out: TGI) of the same compound?
A: Its TGI is > 100 µM.

Q: And the GI50 ([7]; read-out: pGI50 (converted))?
A: Its GI50 is 1.07 µM.

Q: And the Activity (NCI-H522)?
A: The Activity was 42%.

Q: And the Activity (ACHN [8])?
A: The Activity was 100%.

Q: And the Activity (MCF7)?
A: The Activity was -73%.

Q: And the GI50 (ACHN [9]; read-out: GI50)?
A: The GI50 was 1.58 µM.

Q: What about the CC50 (ACHN [9]; [15]) of the same compound?
A: Its CC50 is 6.26 µM.

Q: And the TGI (ACHN [9]; read-out: TGI)?
A: Its TGI is 3.14 µM.

Q: What about the GI50 (ACHN [9]; read-out: pGI50 (converted)) of the same compound?
A: The GI50 was 1.58 µM.

Q: And the CC50 (ACHN [9]; [16])?
A: Its CC50 is 6.31 µM.

Q: What about the TGI (ACHN [9]; read-out: pTGI (converted)) of the same compound?
A: The TGI was 3.16 µM.

Q: What about the GI50 (HOP-62; read-out: GI50) of the same compound?
A: The GI50 was 1.31 µM.

Q: And the CC50 (HOP-62; [15])?
A: Its CC50 is 6.32 µM.

Q: And the TGI (HOP-62; read-out: TGI)?
A: The TGI was 2.87 µM.

Q: And the GI50 (HOP-62; read-out: pGI50 (converted))?
A: Its GI50 is 1.32 µM.

Q: What about the CC50 (HOP-62; [16]) of the same compound?
A: Its CC50 is 6.31 µM.

Q: And the TGI (HOP-62; read-out: pTGI (converted))?
A: Its TGI is 2.88 µM.

Q: What about the Activity (U-251) of the same compound?
A: The Activity was -100%.

Q: What about the Activity (MDA-MB-468 [10]) of the same compound?
A: Its Activity is 102%.

Q: What about the Activity (OVCAR-4) of the same compound?
A: The Activity was 91%.

Q: What about the GI50 (Hs-578T [11]; read-out: GI50) of the same compound?
A: The GI50 was 1.47 µM.

Q: And the TGI (Hs-578T [11]; read-out: TGI)?
A: The TGI was 3.82 µM.

Q: What about the GI50 (Hs-578T [11]; read-out: pGI50 (converted)) of the same compound?
A: The GI50 was 1.48 µM.

Q: And the TGI (Hs-578T [11]; read-out: pTGI (converted))?
A: The TGI was 3.8 µM.

Q: What about the GI50 (DU-145; read-out: GI50) of the same compound?
A: The GI50 was 1.07 µM.

Q: And the CC50 (DU-145; [15])?
A: The CC50 was 4.75 µM.

Q: What about the TGI (DU-145; read-out: TGI) of the same compound?
A: Its TGI is 2.26 µM.

Q: What about the GI50 (DU-145; read-out: pGI50 (converted)) of the same compound?
A: The GI50 was 1.07 µM.

Q: What about the CC50 (DU-145; [16]) of the same compound?
A: The CC50 was 4.79 µM.

Q: And the TGI (DU-145; read-out: pTGI (converted))?
A: Its TGI is 2.24 µM.

Q: What about the Activity [12] of the same compound?
A: Its Activity is 51%.

Q: What about the Activity (SK-OV-3) of the same compound?
A: The Activity was -100%.

Q: And the Activity (COLO 205 [13])?
A: The Activity was 87%.

Q: And the GI50 (HCT-15; read-out: GI50)?
A: Its GI50 is 0.372 µM.

Q: What about the CC50 (HCT-15; [15]) of the same compound?
A: The CC50 was 5.74 µM.

Q: What about the TGI (HCT-15; read-out: TGI) of the same compound?
A: The TGI was 1.9 µM.

Q: What about the GI50 (HCT-15; read-out: pGI50 (converted)) of the same compound?
A: Its GI50 is 0.372 µM.

Q: And the CC50 (HCT-15; [16])?
A: The CC50 was 5.75 µM.

Q: And the TGI (HCT-15; read-out: pTGI (converted))?
A: Its TGI is 1.91 µM.

Q: What about the Activity (BT-549 [14]) of the same compound?
A: The Activity was 100%.

Reference: ChEMBL document CHEMBL2401728, “An unexpected Dimroth rearrangement leading to annelated thieno[3,2-d][1,2,3]triazolo[1,5-a]pyrimidines with potent antitumor activity” (Eur J Med Chem, 2013)
